Source: patent publication US11000033B2, “Ketone or oxime compound, and herbicide” (NISSAN CHEMICAL CORPORATION, priority 2014, dated 2021)

Key:
Type in all cases: in vivo
Monochoria vaginalis [1] = assay: Test Example 1: herbicidal activity, application before weed generation in submerged conditions (symbol C); conditions: application herbicide amount 320 g/ha
Summary of the method: (§1)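 Scores run 0 to 5 by herbicidal ratio, with 5 meaning 90% or more and 0 meaning 5% or lower, read 3 weeks after treatment. Compound was applied as a diluted emulsion to the water surface of submerged alluvial-soil pots on the day weed seeds were sown.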

Stellaria media = assay: Test Example 5: herbicidal effect by foliage application, plastic box (symbol P); conditions: 320 g/ha, 3 weeks after application
Summary of the method: (§2)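 Seeds were sown in sterilized diluvial soil, covered with about 1.5 cm of soil and grown 14 days in a greenhouse at 25° C. to 30° C. An emulsifiable formulation diluted in water to a set rate was sprayed over foliage, and injury was scored 3 weeks later.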

Apera spica-venti = assay: Test Example 5: herbicidal effect by foliage application, plastic box (symbol L); conditions: 320 g/ha, 3 weeks after application
Summary of the method: as §2

Chenopodium album = assay: Test Example 5: herbicidal effect by foliage application, plastic box (symbol O); conditions: 320 g/ha, 3 weeks after application
Summary of the method: as §2

wheat = assay: Test Example 5: effect on crop by foliage application, plastic box (symbol e); conditions: 320 g/ha, 3 weeks after application
Summary of the method: (§3)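 Sterilized diluvial soil, plastic box (21 × 13 × 7 cm); spot sowing, ~1.5 cm soil cover; greenhouse 25–30° C.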

Veronica persica = assay: Test Example 5: herbicidal effect by foliage application, plastic box (symbol R); conditions: 320 g/ha, 3 weeks after application
Summary of the method: as §2

Scirpus juncoides [2] = assay: Test Example 1: herbicidal activity, application before weed generation in submerged conditions (symbol B); conditions: application herbicide amount 320 g/ha
Summary of the method: as §1

[3] = tested on: Echinochloa oryzacola Vasing.; assay: Test Example 2: herbicidal activity, application during weed generation in submerged conditions (symbol A); conditions: Table 23; application herbicide amount 320 g/ha; grade 0-5 by criteria of Test Example 1
Summary of the method: (§4)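 Paddy pot test, submerged (4 cm water), alluvial soil, mixed sowing; greenhouse 25–30° C. Emulsion formulation diluted to predetermined rate, applied onto floodwater at 1–2 leaf stage. Visual herbicidal rating at 3 wk post-treatment.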

Galium spurium = assay: Test Example 5: herbicidal effect by foliage application, plastic box (symbol Q); conditions: 320 g/ha, 3 weeks after application
Summary of the method: as §2

[4] = tested on: Echinochloa crus-galli var. crus-galli; assay: Test Example 3: herbicidal effect by foliage application, Wagner pot (symbol H); conditions: application herbicide amount 320 g/ha
Summary of the method: (§5)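 Foliar spray of water-diluted emulsion formulation at a predetermined herbicide amount onto 14-day-old plants in flooded alluvial soil (water depth 0.1–0.5 cm), greenhouse 25–30 °C; rice sown alongside. Scored 3 wk post-application on set criteria.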

[5] = tested on: Echinochloa crus-galli var. crus-galli; assay: Test Example 5: herbicidal effect by foliage application, plastic box (symbol H); conditions: 320 g/ha, 3 weeks after application
Summary of the method: as §2

Amaranthus retroflexus = assay: Test Example 5: herbicidal effect by foliage application, plastic box (symbol N); conditions: 320 g/ha, 3 weeks after application
Summary of the method: as §2

rapeseed = assay: Test Example 5: effect on crop by foliage application, plastic box (symbol g); conditions: 320 g/ha, 3 weeks after application
Summary of the method: as §3

Leptochloa chinensis = assay: Test Example 3: herbicidal effect by foliage application, Wagner pot (symbol D); conditions: application herbicide amount 320 g/ha
Summary of the method: as §5

Lolium multiflorum Lam. = assay: Test Example 5: herbicidal effect by foliage application, plastic box (symbol K); conditions: 320 g/ha, 3 weeks after application
Summary of the method: as §2

[6] = tested on: Echinochloa oryzacola Vasing.; assay: Test Example 1: herbicidal activity, application before weed generation in submerged conditions (symbol A); conditions: application herbicide amount 320 g/ha
Summary of the method: as §1

Digitaria ciliaris = assay: Test Example 5: herbicidal effect by foliage application, plastic box (symbol F); conditions: 320 g/ha, 3 weeks after application
Summary of the method: as §2

Alopecurus myosuroides = assay: Test Example 5: herbicidal effect by foliage application, plastic box (symbol J); conditions: 320 g/ha, 3 weeks after application
Summary of the method: as §2

Cyperus difformis = assay: Test Example 3: herbicidal effect by foliage application, Wagner pot (symbol E); conditions: application herbicide amount 320 g/ha
Summary of the method: as §5

Avena fatua = assay: Test Example 5: herbicidal effect by foliage application, plastic box (symbol I); conditions: 320 g/ha, 3 weeks after application
Summary of the method: as §2

transplanted rice plant = assay: Test Example 1: effect on crop, application before weed generation in submerged conditions (symbol a); conditions: application herbicide amount 320 g/ha
Summary of the method: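 Alluvial soil pots flooded to 4 cm water, sown with Echinochloa oryzacola, Scirpus juncoides and Monochoria vaginalis, then transplanted with 2.5 leaf stage rice seedlings; pre-emergence application. Greenhouse 25° C. to 30° C.; scored 0–5 by herbicidal ratio 3 weeks after application.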

Setaria viridis = assay: Test Example 5: herbicidal effect by foliage application, plastic box (symbol G); conditions: 320 g/ha, 3 weeks after application
Summary of the method: as §2

Monochoria vaginalis [7] = assay: Test Example 2: herbicidal activity, application during weed generation in submerged conditions (symbol C); conditions: Table 23; application herbicide amount 320 g/ha; grade 0-5 by criteria of Test Example 1
Summary of the method: as §4

corn = assay: Test Example 5: effect on crop by foliage application, plastic box (symbol c); conditions: 320 g/ha, 3 weeks after application
Summary of the method: as §3

beet = assay: Test Example 5: effect on crop by foliage application, plastic box (symbol f); conditions: 320 g/ha, 3 weeks after application
Summary of the method: as §3

Abutilon theophrasti = assay: Test Example 5: herbicidal effect by foliage application, plastic box (symbol M); conditions: 320 g/ha, 3 weeks after application
Summary of the method: as §2

[8] = tested on: directly sowed rice plant; assay: Test Example 3: effect on crop by foliage application, Wagner pot (symbol b); conditions: application herbicide amount 320 g/ha
Summary of the method: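 Alluvial soil in a 1/10000-are Wagner pot was flooded to a water depth of 0.1–0.5 cm. Echinochloa crus-galli var. crus-galli, Leptochloa chinensis, Cyperus difformis and rice were sown into it and grown in a greenhouse at 25–30 °C.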

soybean = assay: Test Example 5: effect on crop by foliage application, plastic box (symbol d); conditions: 320 g/ha, 3 weeks after application
Summary of the method: as §3

Scirpus juncoides [9] = assay: Test Example 2: herbicidal activity, application during weed generation in submerged conditions (symbol B); conditions: Table 23; application herbicide amount 320 g/ha; grade 0-5 by criteria of Test Example 1
Summary of the method: as §4

rice plant = assay: Test Example 5: effect on crop by foliage application, plastic box (symbol b); conditions: 320 g/ha, 3 weeks after application
Summary of the method: as §3

Structure (SMILES): CON=C(C)CC1CC(O)=C(c2c(C)cc(Oc3ccc(C(F)(F)F)cn3)cc2C)C1=O (mixture of isomers) [6-054]
- Herbicidal effect grade, C: Monochoria vaginalis (Monochoria vaginalis [1]): 0 (Herbicidal ratio of 5% or lower (almost no effect))
- P: Stellaria media, herbicidal effect grade (Stellaria media): 0 (Herbicidal ratio of 5% or lower (almost no effect))
- L: Apera spica-venti, herbicidal effect grade (Apera spica-venti): 5 (Herbicidal ratio of 90% or more (almost completely withered))
- O: Chenopodium album, herbicidal effect grade (Chenopodium album): 4 (Herbicidal ratio of 70% or higher and lower than 90%)
- e: wheat, effect on crop grade (wheat): 0 (Herbicidal ratio of 5% or lower (almost no effect))
- R: Veronica persica, herbicidal effect grade (Veronica persica): 0 (Herbicidal ratio of 5% or lower (almost no effect))
- Herbicidal effect grade, B: Scirpus juncoides (Scirpus juncoides [2]): 0 (Herbicidal ratio of 5% or lower (almost no effect))
- Herbicidal effect grade, A: Echinochloa oryzacola Vasing. [3]: 2 (Herbicidal ratio of 20% or higher and lower than 40%)
- Q: Galium spurium, herbicidal effect grade (Galium spurium): 0 (Herbicidal ratio of 5% or lower (almost no effect))
- herbicidal effect on H (Echinochloa crus-galli var. crus-galli), grade 0-5 [4]: 5 (Herbicidal ratio of 90% or more (almost completely withered))
- H: Echinochloa crus-galli var. crus-galli, herbicidal effect grade [5]: 5 (Herbicidal ratio of 90% or more (almost completely withered))
- N: Amaranthus retroflexus, herbicidal effect grade (Amaranthus retroflexus): 0 (Herbicidal ratio of 5% or lower (almost no effect))
- g: rapeseed, effect on crop grade (rapeseed): 1 (Herbicidal ratio of 5% or higher and lower than 20%)
- herbicidal effect on D (Leptochloa chinensis), grade 0-5 (Leptochloa chinensis): 5 (Herbicidal ratio of 90% or more (almost completely withered))
- K: Lolium multiflorum Lam., herbicidal effect grade (Lolium multiflorum Lam.): 4 (Herbicidal ratio of 70% or higher and lower than 90%)
- Herbicidal effect grade, A: Echinochloa oryzacola Vasing. [6]: 1 (Herbicidal ratio of 5% or higher and lower than 20%)
- F: Digitaria ciliaris, herbicidal effect grade (Digitaria ciliaris): 4 (Herbicidal ratio of 70% or higher and lower than 90%)
- J: Alopecurus myosuroides, herbicidal effect grade (Alopecurus myosuroides): 5 (Herbicidal ratio of 90% or more (almost completely withered))
- herbicidal effect on E, grade 0-5 (Cyperus difformis): 3 (Herbicidal ratio of 40% or higher and lower than 70%)
- I: Avena fatua, herbicidal effect grade (Avena fatua): 3 (Herbicidal ratio of 40% or higher and lower than 70%)
- Effect grade on crop, a: transplanted rice plant (transplanted rice plant): 2 (Herbicidal ratio of 20% or higher and lower than 40%)
- G: Setaria viridis, herbicidal effect grade (Setaria viridis): 5 (Herbicidal ratio of 90% or more (almost completely withered))
- Herbicidal effect grade, C: Monochoria vaginalis (Monochoria vaginalis [7]): 0 (Herbicidal ratio of 5% or lower (almost no effect))
- c: corn, effect on crop grade (corn): 4 (Herbicidal ratio of 70% or higher and lower than 90%)
- f: beet, effect on crop grade (beet): 0 (Herbicidal ratio of 5% or lower (almost no effect))
- M: Abutilon theophrasti, herbicidal effect grade (Abutilon theophrasti): 0 (Herbicidal ratio of 5% or lower (almost no effect))
- effect on crop b (directly sowed rice plant), grade 0-5 [8]: 5 (Herbicidal ratio of 90% or more (almost completely withered))
- d: soybean, effect on crop grade (soybean): 0 (Herbicidal ratio of 5% or lower (almost no effect))
- Herbicidal effect grade, B: Scirpus juncoides (Scirpus juncoides [9]): 1 (Herbicidal ratio of 5% or higher and lower than 20%)
- b: directly sowed rice plant, effect on crop grade (rice plant): 3 (Herbicidal ratio of 40% or higher and lower than 70%)

Structure (SMILES): CON=C(C)CC1CC(OC(=O)N(C)C)=C(c2c(C)cc(-c3ccc(Cl)cc3)cc2OC)C1=O (stereo not drawn) [6-081]
- Herbicidal effect grade, C: Monochoria vaginalis (Monochoria vaginalis [1]): 1 (Herbicidal ratio of 5% or higher and lower than 20%)
- P: Stellaria media, herbicidal effect (criteria of Test Example 1) (Stellaria media): 0 (Herbicidal ratio of 5% or lower (almost no effect))
- L: Apera spica-venti, herbicidal effect (criteria of Test Example 1) (Apera spica-venti): 5 (Herbicidal ratio of 90% or more (almost completely withered))
- O: Chenopodium album, herbicidal effect (criteria of Test Example 1) (Chenopodium album): 0 (Herbicidal ratio of 5% or lower (almost no effect))
- e: wheat, effect on crop (criteria of Test Example 1) (wheat): 3 (Herbicidal ratio of 40% or higher and lower than 70%)
- R: Veronica persica, herbicidal effect (criteria of Test Example 1) (Veronica persica): 0 (Herbicidal ratio of 5% or lower (almost no effect))
- Herbicidal effect grade, B: Scirpus juncoides (Scirpus juncoides [2]): 0 (Herbicidal ratio of 5% or lower (almost no effect))
- Herbicidal effect grade, A: Echinochloa oryzacola Vasing. [3]: 1 (Herbicidal ratio of 5% or higher and lower than 20%)
- Q: Galium spurium, herbicidal effect (criteria of Test Example 1) (Galium spurium): 0 (Herbicidal ratio of 5% or lower (almost no effect))
- herbicidal effect on H (Echinochloa crus-galli var. crus-galli), grade 0-5 [4]: 1 (Herbicidal ratio of 5% or higher and lower than 20%)
- H: Echinochloa crus-galli var. crus-galli, herbicidal effect (criteria of Test Example 1) [5]: 4 (Herbicidal ratio of 70% or higher and lower than 90%)
- N: Amaranthus retroflexus, herbicidal effect (criteria of Test Example 1) (Amaranthus retroflexus): 0 (Herbicidal ratio of 5% or lower (almost no effect))
- g: rapeseed, effect on crop (criteria of Test Example 1) (rapeseed): 3 (Herbicidal ratio of 40% or higher and lower than 70%)
- herbicidal effect on D (Leptochloa chinensis), grade 0-5 (Leptochloa chinensis): 3 (Herbicidal ratio of 40% or higher and lower than 70%)
- K: Lolium multiflorum Lam., herbicidal effect (criteria of Test Example 1) (Lolium multiflorum Lam.): 4 (Herbicidal ratio of 70% or higher and lower than 90%)
- Herbicidal effect grade, A: Echinochloa oryzacola Vasing. [6]: 5 (Herbicidal ratio of 90% or more (almost completely withered))
- F: Digitaria ciliaris, herbicidal effect (criteria of Test Example 1) (Digitaria ciliaris): 4 (Herbicidal ratio of 70% or higher and lower than 90%)
- J: Alopecurus myosuroides, herbicidal effect (criteria of Test Example 1) (Alopecurus myosuroides): 3 (Herbicidal ratio of 40% or higher and lower than 70%)
- herbicidal effect on E, grade 0-5 (Cyperus difformis): 0 (Herbicidal ratio of 5% or lower (almost no effect))
- I: Avena fatua, herbicidal effect (criteria of Test Example 1) (Avena fatua): 5 (Herbicidal ratio of 90% or more (almost completely withered))
- Effect grade on crop, a: transplanted rice plant (transplanted rice plant): 3 (Herbicidal ratio of 40% or higher and lower than 70%)
- G: Setaria viridis, herbicidal effect (criteria of Test Example 1) (Setaria viridis): 0 (Herbicidal ratio of 5% or lower (almost no effect))
- Herbicidal effect grade, C: Monochoria vaginalis (Monochoria vaginalis [7]): 0 (Herbicidal ratio of 5% or lower (almost no effect))
- c: corn, effect on crop (criteria of Test Example 1) (corn): 5 (Herbicidal ratio of 90% or more (almost completely withered))
- f: beet, effect on crop (criteria of Test Example 1) (beet): 0 (Herbicidal ratio of 5% or lower (almost no effect))
- M: Abutilon theophrasti, herbicidal effect (criteria of Test Example 1) (Abutilon theophrasti): 0 (Herbicidal ratio of 5% or lower (almost no effect))
- effect on crop b (directly sowed rice plant), grade 0-5 [8]: 0 (Herbicidal ratio of 5% or lower (almost no effect))
- d: soybean, effect on crop (criteria of Test Example 1) (soybean): 0 (Herbicidal ratio of 5% or lower (almost no effect))
- Herbicidal effect grade, B: Scirpus juncoides (Scirpus juncoides [9]): 0 (Herbicidal ratio of 5% or lower (almost no effect))
- b: directly sowed rice plant, effect on crop (criteria of Test Example 1) (rice plant): 0 (Herbicidal ratio of 5% or lower (almost no effect))
